Results taken from patent US4124766A, “Substituted 3-(4-imidazolylmethylene)carbazic and thiocarbazic acid esters” (American Cyanamid Company, priority 1977, dated 1978).

Legend:
[1] = tested on: mouse skin PDE (cyclic-AMP phosphodiesterase); test: Mouse skin phosphodiesterase (PDE) inhibition test (A); assay type: biochemical, mouse (hairless mice); set-up: key to Mouse Skin Phosphodiesterase (A): Active: A compound is considered active if it inhibits more than theophylline, that is, to 50% of control at 1 mM concentration of compound, or to 80% of control for 0.05 mM concentration of compound; settings: for Mouse Skin Phosphodiesterase (A): final concentration of test compound 10 ug./ml, active = inhibits more than theophylline
[2] = tested on: monkey lung cyclic AMP phosphodiesterase; test: Monkey lung phosphodiesterase inhibition test (B); assay type: biochemical, African green monkey; set-up: key to Monkey Lung Phosphodiesterase (B): Active: A compound is considered active if it inhibits more than theophylline, that is, to 50% of control at 1 mM concentration of compound, or to 80% of control for 0.05 mM concentration of compound; settings: for Monkey Lung Phosphodiesterase (B): test compound usually 1 mM or 0.1 mM, active = inhibits more than theophylline
Method: Lung parenchyma of African green monkeys is homogenized in a Waring blender and centrifuged at 40,000 × gravity for 20 minutes. The supernatant is brought to 70% saturation of ammonium sulfate, centrifuged and the pellet redissolved and dialysed, before aliquoting and storage at -20° C.
Phosphodiesterase is assayed by the method of Thompson and Appleman, ibid. An assay tube contains a 0.4 ml. solution of the following: 45 mM tris-HCl buffer, pH 7.4, 6.25 mM MgCl2, 0.1 mM dithioerythritol, 10^-6 M cyclic AMP, 0.1 uCi [^3 H]-cyclic AMP, and test compound at the desired concentration (usually 1 mM or 0.1 mM). Compounds not readily soluble in water are dissolved at 40 times the desired concentration in methanol, and diluted 20 times with water. If the compound is not dissolved at this time, it is suspended by sonication before being diluted 1:2 into the assay tube. In this case the activity of the enzyme in the presence of the compound is compared to a solvent control (2.5% methanol), although the solvent alone has negligible effect. The reaction is initiated by addition of enzyme and proceedes at 25° C. for 20 minutes. It is terminated by incubation at 100° C. for 2 minutes. The tubes are cooled to 25° C., 0.8 ug of 5'-nucleotidase (Crotolus adamantus toxin) is added to each and the tubes incubated at 25° C. for 30 minutes. A one milliliter suspension of Bio-Rad Labs. AGIX8® (about 0.5 ml. of settled resin) is added, the tubes centrifuged at 900 × gravity for 10 minutes and an aliquot of supernatant removed for scintillation counting. The inhibition by the test compound is calculated as: [formula] where `compound` is the cpm in the presence of compound, `control` is the cpm in the absence of compound, and `blank` is the cpm in the absence of enzyme. […] For this reason, control tubes which contained [^3 H]-AMP instead of [^3 H]-cyclic AMP are run in parallel. A correction of the apparent phosphodiesterase activity is made for the rare compound which inhibited the hydrolysis of AMP.
A compound is considered active if it inhibits more than theophylline, that is, to 50% of control at 1 mM concentration of compound, or to 80% of control for 0.05 mM concentration of compound.

Row | Structure (SMILES) | Mouse Skin Phosphodiesterase (A) [1] | Monkey Lung Phosphodiesterase (B) [2] | phosphodiesterase activity, % of control (theophylline benchmark) ([1]; 0.05 mM concentration of compound, criterion stated for skin (A) or lung (B)) | phosphodiesterase activity, % of control (theophylline benchmark) ([2]; 1 mM concentration of compound, criterion stated for skin (A) or lung (B))
1 | Cn1c(=O)c2[nH]cnc2n(C)c1=O [theophylline, reference compound] |  |  | 80% | 50%
2 | O=c1[nH]ncc2c(Br)nc(-c3ccccc3)n12 [8-Bromo-6-phenyl-imidazo[1,5-d]-as-triazin-4(3H)-one] | Active | Active |  | 
3 | Cc1nc(C)n2c(=S)[nH]ncc12 [6,8-Dimethyl-imidazo[1,5-d]-as-triazine-4(3H)-thione] | Active |  |  | 
4 | CC(C)(C)c1ncc2cn[nH]c(=O)n12 [6-tert-Butyl-imidazo[1,5-d]-as-triazin-4(3H)-one] | Active |  |  | 
5 | Cc1ncn2c(=O)[nH]ncc12 [8-Methyl-imidazo[1,5-d]-as-triazin-4(3H)-one] | Active |  |  | 
6 | CCCc1nc(C)c2cn[nH]c(=S)n12 [8-Methyl-6-n-propyl-imidazo[1,5-d]-as-triazine-4(3H)-thione] | Active | Active |  | 
7 | Cc1nc(Cc2ccccc2)n2c(=S)[nH]ncc12 [6-Benzyl-8-methyl-imidazo[1,5-d]-as-triazine-4(3H)-thione] | Active | Active |  | 
8 | Cc1ncn2c(=S)[nH]ncc12 [8-Methyl-imidazo[1,5-d]-as-triazine-4(3H)-thione] | Active |  |  | 
9 | Cc1nc(C)n2c(=O)[nH]ncc12 [6,8-Dimethyl-imidazo[1,5-d]-as-triazin-4(3H)-one] | Active | Active |  | 
10 | O=c1[nH]ncc2c(Cl)nc(-c3ccccc3)n12 [8-Chloro-6-phenyl-imidazo[1,5-d]-as-triazin-4(3H)-one] | Active | Active |  | 
11 | Cc1nc(C(C)(C)C)n2c(=O)[nH]ncc12 [6-tert-Butyl-8-methyl-imidazo[1,5-d]-as-triazin-4(3H)-one] | Active | Active |  | 
12 | Cc1nc(-c2ccccc2)n2c(=S)[nH]ncc12 [8-Methyl-6-phenyl-imidazo[1,5-d]-as-triazine-4(3H)-thione] | Active |  |  | 
13 | CCCc1ncc2cn[nH]c(=S)n12 [6-n-Propyl-imidazo[1,5-d]-as-triazine-4(3H)-thione] | Active | Active |  | 

Now from value to molecule, other results behind:

Row | Mouse Skin Phosphodiesterase (A) [1] | Monkey Lung Phosphodiesterase (B) [2] | Structure (SMILES) | phosphodiesterase activity, % of control (theophylline benchmark) ([1]; 0.05 mM concentration of compound, criterion stated for skin (A) or lung (B)) | phosphodiesterase activity, % of control (theophylline benchmark) ([2]; 1 mM concentration of compound, criterion stated for skin (A) or lung (B))
14 | Active | Active | Cc1nc(-c2ccccc2)n2c(=O)[nH]ncc12 [8-Methyl-6-phenyl-imidazo[1,5-d]-as-triazin-4(3H)-one] |  | 
15 | Active |  | O=c1[nH]ncc2cnc(Cc3ccccc3)n12 [6-Benzyl-imidazo[1,5-d]-as-triazin-4(3H)-one] |  | 
16 | Active |  | CCCOc1ccccc1-c1ncc2cn[nH]c(=O)n12 [6-o-Propoxyphenyl-imidazo[1,5-d]-as-triazin-4(3H)-one] |  | 
17 | Active |  | Cc1nc(Cc2ccccc2)n2c(=O)[nH]ncc12 [6-Benzyl-8-methyl-imidazo[1,5-d]-as-triazin-4(3H)-one] |  | 
18 | Active |  | CCCc1ncc2cn[nH]c(=O)n12 [6-n-Propyl-imidazo[1,5-d]-as-triazin-4(3H)-one] |  | 
19 | Active |  | O=c1[nH]ncc2cnc(-c3ccccc3)n12 [6-Phenyl-imidazo[1,5-d]-as-triazin-4(3H)-one] |  | 
